# Tests used:
# Gal4-RORγ-LBD = target: T1, Gal4-RORγ-LBD (Homo sapiens, UniProt P51449); assay: Gal4-RORγ Luciferase Reporter Assay in HEK-293T Cells; type: cell-based; details: HEK-293 cells
# T1 construct: expressed in transfected cells; host or cells: HEK-293 cells (pcDNA3.1neo plasmid)
# T1 sequence (P51449 269-508 limits assumed): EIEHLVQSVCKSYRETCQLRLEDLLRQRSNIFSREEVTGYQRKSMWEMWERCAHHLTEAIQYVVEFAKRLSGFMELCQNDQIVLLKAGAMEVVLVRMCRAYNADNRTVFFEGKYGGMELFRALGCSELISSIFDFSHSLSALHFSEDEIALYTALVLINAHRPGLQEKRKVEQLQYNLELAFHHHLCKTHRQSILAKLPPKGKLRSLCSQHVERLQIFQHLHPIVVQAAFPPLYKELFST
# Outline: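 HEK-293 cells were transiently co-transfected with Gal4-RORγ-LBD and pGL4.31 Gal4-luciferase, with ursolic acid added at 2 μM final. Compounds were incubated overnight at 37° C. in 0.2% DMSO and luminescence read with One-Glo. Max Response is the upper plateau of a 4-parameter logistic fit, with signal lacking ursolic acid or compound set to 100.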
# RORγ-LBD = target: T2, RORγ-LBD (Homo sapiens, UniProt P51449); assay: RORγ-Ligand Binding Domain (LBD) TR-FRET Assay; type: biochemical;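 on TR-FRET Assay Max Response: 665/615 nm ratio relative to signal without ursolic acid or compound set at 100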
# T2 construct: made in house; host or cells: SF9 cells (baculovirus)
# T2 sequence (P51449 269-508 limits assumed): T1 sequence (P51449 269-508 limits assumed)
# Outline: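 His-tagged RORγ-LBD from SF9 baculovirus lysate, ~3 nM final, in 50 mM Tris pH 7.0, 50 mM KCl, 1 mM EDTA, 0.1 mM DTT, 0.01% BSA. Biotinylated SRC1 LXXLL peptide at 200 nM final with 2 μM ursolic acid; TR-FRET read-out, 1% DMSO final.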
# [1] = luciferase reporter, with 2 μM ursolic acid
EC50 (Gal4-RORγ-LBD; 2 μM ursolic acid) [nM],EC50 (RORγ-LBD) [nM],EC50 (Gal4-RORγ-LBD; [1]) [nM],Structure (SMILES),Gal4-RORγ Assay Max Response (Gal4-RORγ-LBD; 2 μM ursolic acid),TR-FRET Assay Max Response (RORγ-LBD),Gal4-RORγ Assay Max Response (Gal4-RORγ-LBD; [1])
,< 500,< 500,"CN(C)c1cccc(-c2ccc3c(c2)N(S(=O)(=O)c2cccc(C(F)(F)F)c2)C[C@H](CCC(=O)O)O3)n1 [Compound 4X, (S)-3-(6-(6-(dimethylamino)-pyridin-2-yl)-4-((3-(trifluoro-methyl)phenyl)sulfonyl)-3,4-dihydro-2H-benzo[b][1,4]-oxazin-2-yl)propanoic acid]",,**** (The symbol “****” indicates a value greater than 200),** (The symbol “**” indicates a value in the range of greater than 90 to 150)
,< 500,< 500,"O=C(O)CC[C@H]1CN(S(=O)(=O)c2cccc(C(F)(F)F)c2)c2cc(-c3cccc(C(F)(F)F)c3)ccc2O1 [Compound 2G, (S)-3-(6-(3-(trifluoromethyl)phenyl)-4-((3-(trifluoromethyl)phenyl)-sulfonyl)-3,4-dihydro-2H-benzo[b][1,4]oxazin-2-yl)propanoic acid]",,*** (The symbol “***” indicates a value in the range of greater than 150 to 200),*** (The symbol “***” indicates a value in the range of greater than 150 to 200)
,< 500,< 500,"O=C(O)CC[C@H]1CN(S(=O)(=O)c2cccc(C(F)(F)F)c2)c2cc(-c3cc(F)cc(Cl)c3)ccc2O1 [Compound 2I, (S)-3-(6-(3-chloro-5-fluorophenyl)-4-((3-(trifluoro-methyl)phenyl)sulfonyl)-3,4-dihydro-2H-benzo[b][1,4]-oxazin-2-yl)propanoic acid]",,*** (The symbol “***” indicates a value in the range of greater than 150 to 200),*** (The symbol “***” indicates a value in the range of greater than 150 to 200)
,< 500,500 to 5000,"O=C(O)CC[C@H]1CN(S(=O)(=O)c2cccc(C(F)(F)F)c2)c2cc(-c3cccn4ccnc34)ccc2O1 [Compound 4J, (S)-3-(6-(imidazo[1,2-a]pyridin-8-yl)-4-((3-(trifluoromethyl)-phenyl)sulfonyl)-3,4-dihydro-2H-benzo[b][1,4]oxazin-2-yl)propanoic acid]",,**** (The symbol “****” indicates a value greater than 200),** (The symbol “**” indicates a value in the range of greater than 90 to 150)

# Second part, the molecule before the results:
Structure (SMILES),EC50 (Gal4-RORγ-LBD; 2 μM ursolic acid) [nM],EC50 (RORγ-LBD) [nM],EC50 (Gal4-RORγ-LBD; [1]) [nM],Gal4-RORγ Assay Max Response (Gal4-RORγ-LBD; 2 μM ursolic acid),TR-FRET Assay Max Response (RORγ-LBD),Gal4-RORγ Assay Max Response (Gal4-RORγ-LBD; [1])
"C[C@]1(C(=O)O)C[C@H](C[C@H]2CN(S(=O)(=O)c3cccc(C(F)(F)F)c3)c3cc(-c4cccc(C(F)(F)F)n4)ccc3O2)C1 [Compound 60N, (1S,3r)-1-methyl-3-(((S)-4-((3-(trifluoromethyl)phenyl)-sulfonyl)-6-(6-(trifluoro-methyl)pyridin-2-yl)-3,4-dihydro-2H-benzo[b][1,4]-oxazin-2-yl)methyl)cyclobutane-1-carboxylic acid]",< 500,< 500,,** (The symbol “**” indicates a value in the range of greater than 90 to 150),** (The symbol “**” indicates a value in the range of greater than 90 to 150),
"CN(CC(=O)O)C(=O)NCC[C@H]1CN(S(=O)(=O)c2cccc(C(F)(F)F)c2)c2cc(-c3cc(F)ccc3F)ccc2O1 [Compound 23W, (S)-N-((2-(6-(2,5-difluorophenyl)-4-((3-(trifluoromethyl)phenyl)-sulfonyl)-3,4-dihydro-2H-benzo[b][1,4]oxazin-2-yl)ethyl)carbamoyl)-N-methylglycine]",,< 500,< 500,,**** (The symbol “****” indicates a value greater than 200),** (The symbol “**” indicates a value in the range of greater than 90 to 150)
"O=c1[nH]c(OCCC[C@H]2CN(S(=O)(=O)c3cccc(C(F)(F)F)c3)c3cc(-c4cc(F)cc(F)c4)ccc3O2)no1 [Compound 36A, (S)-3-(3-(6-(3,5-difluoro-phenyl)-4-((3-(trifluoro-methyl)phenyl)sulfonyl)-3,4-dihydro-2H-benzo[b][1,4]-oxazin-2-yl)propoxy)-1,2,4-oxadiazol-5(4H)-one]",,< 500,< 500,,**** (The symbol “****” indicates a value greater than 200),**** (The symbol “****” indicates a value greater than 200)
"Cc1cnc(-c2ccc3c(c2)N(S(=O)(=O)c2cccc(C(F)(F)F)c2)C[C@H](CCC(=O)O)O3)o1 [Compound 26, (S)-3-(6-(5-methyloxazol-2-yl)-4-((3-(trifluoromethyl)phenyl)sulfonyl)-3,4-dihydro-2H-benzo[b][1,4]oxazin-2-yl)propanoic acid]",,500 to 5000,500 to 5000,,*** (The symbol “***” indicates a value in the range of greater than 150 to 200),* (The symbol “*” indicates a value in the range of 25 to 90)
"O=c1[nH]nc(CC[C@H]2CN(S(=O)(=O)c3cccc(C(F)(F)F)c3)c3cc(-c4cc(F)ccc4F)ccc3O2)o1 [Compound 11, (S)-5-(2-(6-(2,5-difluorophenyl)-4-((3-(trifluoromethyl)phenyl)sulfonyl)-3,4-dihydro-2H-benzo[b][1,4]oxazin-2-yl)ethyl)-1,3,4-oxadiazol-2(3H)-one]",,< 500,< 500,,**** (The symbol “****” indicates a value greater than 200),** (The symbol “**” indicates a value in the range of greater than 90 to 150)
"CC(C)(C[C@H]1CN(S(=O)(=O)c2cccc(C(F)(F)F)c2)c2cc(-c3cccc(OC(F)F)c3F)ccc2O1)C(=O)O [Compound 32BJ, (S)-3-(6-(3-(difluoromethoxy)-2-fluorophenyl)-4-((3-(trifluoromethyl)phenyl)sulfonyl)-3,4-dihydro-2H-benzo[b][1,4]oxazin-2-yl)-2,2-dimethylpropanoic acid]",< 500,< 500,,** (The symbol “**” indicates a value in the range of greater than 90 to 150),*** (The symbol “***” indicates a value in the range of greater than 150 to 200),
"O=C(O)CC[C@H]1CN(S(=O)(=O)c2cccc(C(F)(F)F)c2)c2cc(-c3cc(F)cc(F)c3Cl)c(Cl)cc2O1 [Compound 22G, (S)-3-(7-chloro-6-(2-chloro-3,5-difluorophenyl)-4-((3-(trifluoromethyl)phenyl)sulfonyl)-3,4-dihydro-2H-benzo[b][1,4]-oxazin-2-yl)propanoic acid]",,< 500,< 500,,*** (The symbol “***” indicates a value in the range of greater than 150 to 200),** (The symbol “**” indicates a value in the range of greater than 90 to 150)
"O=C(O)C1(C[C@H]2CN(S(=O)(=O)c3cccc(C(F)(F)F)c3)c3cc(-c4cccc(Cl)c4F)ccc3O2)CCC1 [Compound 32BF, (S)-1-((6-(3-chloro-2-fluoro-phenyl)-4-((3-(trifluoromethyl)-phenyl)sulfonyl)-3,4-dihydro-2H-benzo[b][1,4]oxazin-2-yl)-methyl)cyclobutane-1-carboxylic acid]",< 500,< 500,,** (The symbol “**” indicates a value in the range of greater than 90 to 150),*** (The symbol “***” indicates a value in the range of greater than 150 to 200),

# From US10611740B2, “Aryl dihydro-2H-benzo[b][1,4]oxazine sulfonamide and related compounds for use as agonists of RORγ and the treatment of disease” (Lycera Corporation, priority 2015, dated 2020)
